Experimental data taken from patent US20060171969A1, “Oral pharmaceutical forms of liquid drugs having improved bioavailability” (priority 2002, published 2006).

Assay: In man pharmacokinetics of oral NO-diclofenac sachets (plasma, LC/MS/MS)
Type: in vivo
Conditions: 75, 100 and 150 mg sachets of example 2, oral; 0.25-32 h
Protocol: In man evaluation of pharmacokinetic and pharmacodynamic parameters of the oral NO-diclofenac formulation described in example 2 (sachets).
Six healthy fastened patients were administered with 75, 100 and 150 mg NO-Diclofenac sachets formulated as described in example 2.
In order to evaluate the pharmacokinetic parameters, blood samples were taken at 0.25, 0.5, 1, 2, 3, 4, 5, 6, 8, 10, 12, 16, 24 and 32 hours after administration of the pharmaceutical formulation. The active ingredient NO-diclofenac and its metabolites diclofenac and the hydroxyderivative 4-OH-diclofenac were dosed in plasma by a LC/MS/MS method, previously validated. NO-diclofenac was not found in the samples at any dosage. The pharmacokinetic parameters of plasma levels obtained for diclofenac (D) and the 4-hydroxydiclofenac (40H-Diclofenac, 40H-D) are reported in Table 2.

NO-diclofenac (unchanged) in plasma samples: not found
SMILES: O=C(Cc1ccccc1Nc1c(Cl)cccc1Cl)OCCCCO[N+](=O)[O-] [NO-diclofenac, 2-[(2,6-dichlorophenyl)amino]benzeneacetic acid 4-(nitrooxy)butyl ester]
